Test results reported in patent US8354447B2, “mGLU receptors antagonists for treating disorders associated with mGLU receptors including addiction and depression” (The Scripps Research Institute, priority 2002, dated 2013).
Structures can show the parent of a compound that is named as a salt. Where two headings read alike, the source gives them in different places.

Key:
male Wistar rats [1] = system: male Wistar rats
Excerpt: Animals were trained to respond according to a modification of the discrete-trial current-threshold procedure of Kornetsky and Esposito (Fed Proc 38:2473-2476, 1979), which has been described in detail previously (Markou and Koob, 1992 Physiol Behav 51:111-119). Briefly, a trial was initiated by the delivery of a non-contingent electrical stimulus. […] The current intensity delivered was adjusted for each animal and typically ranged from 50 to 200 μA. […] After a variable inter-trial interval (7.5-12.5 sec, average of 10 sec), another trial was initiated with the delivery of a non-contingent electrical stimulus. […] Responding during the inter-trial interval delayed the onset of the next trial by 12.5 sec. Current levels were varied in alternating descending and ascending series. A set of three trials was presented for each current intensity. Current intensities were altered in 5 μA steps. In each testing session, four alternating descending-ascending series were presented. […] The overall threshold of the session was defined as the mean of the thresholds for the four individual series. Each testing session was ˜30 min in duration. The latency between the onset of the non-contingent stimulus and a positive response was recorded as the response latency. The response latency for each test session was defined as the mean response latency of all trials during which a positive response occurred. After establishment of stable ICSS reward thresholds, rats were tested in the ICSS procedure once daily except for the spontaneous nicotine withdrawal experiment when rats were tested at time-points according to the experimental design.
Systemic administration experiments. These experiments investigated whether nicotine withdrawal, as measured by elevations in ICSS thresholds, could be precipitated in nicotine-treated rats by systemic administration of an agonist at mGluII receptors (LY314582), an agonist at GABAB receptors (CGP44532), or antagonists at mGlu5 (MPEP), NMDA (MK-801) or AMPA/Kainate (NBQX) glutamate receptors. For each drug tested, rats were trained in the ICSS paradigm until stable baseline responding was achieved, defined as ≦10% variation in thresholds for 3 consecutive days and requiring approximately 14 days of daily testing. […] One group was then prepared with subcutaneous osmotic mini-pumps delivering vehicle and the second group with mini-pumps delivering 9 mg/kg/day nicotine hydrogen tartrate (3.16 mg/kg/day nicotine free base). There was a minimum seven-day interval after mini-pump implantation, during which ICSS reward thresholds continued to be measured daily, before the effect of any systemically administered drug on reward thresholds was evaluated.

drug-naïve rats = details: previous studies (Harrison et al., 2002; Macey et al., 2001); cited from earlier work
male Wistar rats [2] = experiment: Reward deficits during amphetamine withdrawal (ICSS thresholds, response latencies, body weight)
Protocol: Male Wistar rats (Charles River, Hollister, Calif.) (300-320 g at the start of the experiments) were housed in pairs in a temperature and humidity controlled environment with a 12 hr light/dark cycle. Food and water were available ad libitum. A different set of subjects was used for each experiment. All subjects were treated in accordance with the National Institutes of Health “Guide for the Care and Use of Laboratory Animals,” and the animal facilities and the experimental protocols were in accordance with the Association for the Assessment and Accreditation of Laboratory Animal Care. Most of the behavioral testing was conducted during the light phase of the subjects' light/dark cycle, unless otherwise dictated by the experimental design due to time-course assessment of behavioral parameters. Apparatus The experimental apparatus consisted of 16 Plexiglas chambers (30.5×30×17 cm) (Med Associates Inc., St. Albans, Vt.) encased in sound-attenuating boxes (San Diego Instruments, San Diego, Calif.). Each operant chamber consisted of a stainless steel grid floor and a metal wheel manipulandum located on one wall, which required a 0.2 N force to rotate it a quarter turn. Gold-contact swivel commutators and bipolar leads connected the animals in the stimulation circuit (Plastics One, Roanoke, Va.). Brain stimulation was administered by constant current stimulators (Stimtek 1200, San Diego Instruments, San Diego, Calif.). Surgical Procedure The rats were prepared with 11 mm stainless steel bipolar electrodes (Plastics One; diameter=0.25 mm) in the posterior lateral hypothalamus (AP −0.5 mm from bregma; L±1.7 mm; DV −8.3 mm from dura, with the incisor bar set at 5 mm above the interaural line; Pellegrino et al. 1979 under halothane anaesthesia (1-1.5% halothane/oxygen mixture). Subjects were allowed to recover for at least seven days before any behavioral testing. Half of the electrodes were positioned on the right hemisphere and the other half on the left hemisphere to counterbalance possible brain asymmetries. […] The subjects were initially trained to turn the wheel manipulandum on a fixed ratio 1 schedule of reinforcement. […] The current intensity delivered was adjusted for each animal and typically ranged from 100 to 200 μA. After successful familiarization with this procedure (2 sessions of 100 reinforcers in less than 20 minutes), the rats were gradually trained on a discrete-trial, current-threshold procedure. At the start of each trial rats received a non-contingent electrical stimulus. During the following 7.5 sec, the limited hold, if the subjects responded by turning the wheel manipulandum a quarter turn (positive response) they received a second, contingent stimulus identical to the previous non-contingent stimulus. During a 2 sec period immediately following a positive response, further responses were recorded as extra responses but had no consequence. If no response occurred during the 7.5 sec limited hold period a negative response was recorded. […] Stimulation intensities were varied according to the classical psychophysical method of limits. The subjects received four alternating series of ascending and descending current intensities starting with a descending series. Within each series the stimulus intensity was altered by 5 μA steps between each set of trials (three trials per set). After training in the above procedure, rats were tested until stable baseline thresholds had been achieved L+10% over a 5-day period). […] During the ascending series, the reverse situation defined the threshold. Thus, during each session, four current-thresholds were recorded and the mean of these values was taken as the current-threshold for each subject for each test session. Response Latency: The latency between the onset of the non-contingent stimulus and a positive response was recorded as the response latency. The response latency for each test session was defined as the mean response latency of all trials during which a positive response occurred. […]

Wistar rats = experiment: Cocaine-induced lowering of ICSS thresholds; format: in vivo, rat
[3] = CGP44532 0.065 mg/kg i.p., Nicotine-treated rats
[4] = CGP44532 0.065 mg/kg i.p., Vehicle-treated rats
[5] = CGP44532 0.125 mg/kg i.p., Nicotine-treated rats
[6] = CGP44532 0.125 mg/kg i.p., Vehicle-treated rats
[7] = CGP44532 0.25 mg/kg i.p., Nicotine-treated rats
[8] = CGP44532 0.25 mg/kg i.p., Vehicle-treated rats
[9] = CGP44532 0.5 mg/kg i.p., Nicotine-treated rats
[10] = CGP44532 0.5 mg/kg i.p., Vehicle-treated rats
[11] = MK-801 0.01 mg/kg i.p., Nicotine-treated rats
[12] = MK-801 0.01 mg/kg i.p., Vehicle-treated rats
[13] = MK-801 0.03 mg/kg i.p., Nicotine-treated rats
[14] = MK-801 0.03 mg/kg i.p., Vehicle-treated rats
[15] = MK-801 0.1 mg/kg i.p., Nicotine-treated rats
[16] = MK-801 0.1 mg/kg i.p., Vehicle-treated rats
[17] = MK-801 0.15 mg/kg i.p., Nicotine-treated rats
[18] = MK-801 0.15 mg/kg i.p., Vehicle-treated rats
[19] = MK-801 0.175 mg/kg i.p., Nicotine-treated rats
[20] = MK-801 0.175 mg/kg i.p., Vehicle-treated rats
[21] = MK-801 0.2 mg/kg i.p., Nicotine-treated rats
[22] = MK-801 0.2 mg/kg i.p., Vehicle-treated rats
[23] = chronic amphetamine administration

## CP(=O)(O)C[C@@H](O)CN [CGP44532, 3-Amino-2-(S)-hydroxypropyl-methyl-phosphinic acid]
Male Wistar rats [1]; [3]
  ICSS Thresholds: 96.37 ± 3.2 percentage of baseline
  ICSS response Latencies: 106.02 ± 8.1 percentage of baseline
Male Wistar rats [1]; [4]
  ICSS Thresholds: 96.28 ± 3.1 percentage of baseline
  ICSS response Latencies: 97.31 ± 3.8 percentage of baseline
Male Wistar rats [1]; [5]
  ICSS Thresholds: 103.88 ± 7.2 percentage of baseline
  ICSS response Latencies: 98.15 ± 5.3 percentage of baseline
Male Wistar rats [1]; [6]
  ICSS Thresholds: 106.76 ± 3.2 percentage of baseline
  ICSS response Latencies: 102.34 ± 2.8 percentage of baseline
Male Wistar rats [1]; [7]
  ICSS Thresholds: 109.98 ± 5.4 percentage of baseline
  ICSS response Latencies: 99.05 ± 3.1 percentage of baseline
Male Wistar rats [1]; [8]
  ICSS Thresholds: 109.14 ± 5.1 percentage of baseline
  ICSS response Latencies: 105.03 ± 3.1 percentage of baseline
Male Wistar rats [1]; [9]
  ICSS Thresholds: 146.83 ± 14.3 percentage of baseline
  ICSS response Latencies: 98.11 ± 5.4 percentage of baseline
Male Wistar rats [1]; [10]
  ICSS Thresholds: 148.43 ± 16.6 percentage of baseline
  ICSS response Latencies: 106.13 ± 6.5 percentage of baseline
Male Wistar rats [1]; CGP44532 0.5 mg/kg, p<0.001
  ICSS reward thresholds: elevated reward thresholds in nicotine-treated and control rats
Male Wistar rats [1]; CGP44532 0.065-0.25 mg/kg, nicotine treated rats
  ICSS reward thresholds: did not precipitate reward threshold elevations in nicotine treated rats at the lowest doses tested
Male Wistar rats [1]; CGP44532 0.065-0.5 mg/kg
  ICSS response Latencies: had no effect on response latencies at any dose tested
drug-naïve rats
  dose that elevated ICSS thresholds in drug-naïve rats: ≥ 0.25 mg/kg

## C[C@]12N[C@H](Cc3ccccc31)c1ccccc12 [MK-801, (5R,10S)-(+)-5-Methyl-10,11-dihydro-5H-dibenzo(a,d)cyclohepten-5,10-imine hydrogen maleate]
Male Wistar rats [1]; [11]
  ICSS Thresholds: 98.20 ± 6.1 percentage of baseline
  ICSS response Latencies: 95.41 ± 2.3 percentage of baseline
Male Wistar rats [1]; [12]
  ICSS Thresholds: 95.99 ± 3.3 percentage of baseline
  ICSS response Latencies: 100.00 ± 2.5 percentage of baseline
Male Wistar rats [1]; [13]
  ICSS Thresholds: 93.09 ± 3.9 percentage of baseline
  ICSS response Latencies: 94.64 ± 3.6 percentage of baseline
Male Wistar rats [1]; [14]
  ICSS Thresholds: 92.54 ± 2.6 percentage of baseline
  ICSS response Latencies: 103.14 ± 2.1 percentage of baseline
Male Wistar rats [1]; [15]
  ICSS Thresholds: 89.42 ± 3.6 percentage of baseline
  ICSS response Latencies: 106.14 ± 4.4 percentage of baseline
Male Wistar rats [1]; [16]
  ICSS Thresholds: 88.48 ± 5.6 percentage of baseline
  ICSS response Latencies: 98.97 ± 3.9 percentage of baseline
Male Wistar rats [1]; [17]
  ICSS Thresholds: 76.24 ± 4.7 percentage of baseline
  ICSS response Latencies: 93.65 ± 3.6 percentage of baseline
Male Wistar rats [1]; [18]
  ICSS Thresholds: 87.14 ± 4.6 percentage of baseline
  ICSS response Latencies: 101.60 ± 2.0 percentage of baseline
Male Wistar rats [1]; [19]
  ICSS Thresholds: 82.26 ± 3.7 percentage of baseline
  ICSS response Latencies: 93.56 ± 4.2 percentage of baseline
Male Wistar rats [1]; [20]
  ICSS Thresholds: 93.64 ± 3.4 percentage of baseline
  ICSS response Latencies: 119.22 ± 11.9 percentage of baseline
Male Wistar rats [1]; [21]
  ICSS Thresholds: 84.29 ± 3.0 percentage of baseline
  ICSS response Latencies: 105.14 ± 1.9 percentage of baseline
Male Wistar rats [1]; [22]
  ICSS Thresholds: 82.47 ± 4.3 percentage of baseline
  ICSS response Latencies: 119.21 ± 9.4 percentage of baseline
Male Wistar rats [1]; MK-801 0.01-0.2 mg/kg
  ICSS reward thresholds: lowered reward thresholds in nicotine-treated and control rats
Male Wistar rats [1]; MK-801, nicotine-treated rats
  withdrawal-like elevations in reward thresholds: did not precipitate withdrawal-like elevations in reward thresholds in nicotine-treated rats at any dose tested
Male Wistar rats [1]; MK-801, p<0.05, particularly in control rats
  ICSS response Latencies: did significantly increase response latencies
Male Wistar rats [1]; both groups, rats no longer responded for self-stimulation
  Doses causing disruption in performance in the ICSS paradigm: ≥ 0.2 mg/kg

## NS(=O)(=O)c1cccc2c1c([N+](=O)[O-])cc1[nH]c(=O)c(=O)[nH]c12.[Na].[Na] [NBQX, 2,3-dioxo-6-nitro-1,2,3,4-tetrahydrobenzo(f)quinoxaline-7-sulphonamide disodium]
Male Wistar rats [1]; NBQX 0.01-1 mg/kg
  ICSS response Latencies: had no effect on response latencies in nicotine-treated or control rats at any dose tested
  ICSS reward thresholds: significantly altered ICSS reward thresholds in nicotine-treated but not control rats
Male Wistar rats [1]; NBQX 0.025-0.1 mg/kg, nicotine-treated rats
  ICSS reward thresholds: elevated reward thresholds in nicotine-treated rats
Male Wistar rats [1]; NBQX 0.5-1 mg/kg, nicotine-treated rats
  ICSS reward thresholds: did not significantly increase thresholds compared to vehicle treatment

## C[C@H](N)Cc1ccccc1 [amphetamine, d-Amphetamine sulfate]
Male Wistar rats [2]; amphetamine-exposed rats treated with vehicle
  reward thresholds during amphetamine withdrawal: exhibited elevated thresholds at withdrawal hours 12, 36, 42, 60 and 84
Male Wistar rats [2]; [23]
  body weight: significantly reduced the body weight of animals
  response latencies: did not significantly differ from those of the saline-exposed rats at any stage during chronic drug treatment
Male Wistar rats [2]; chronic amphetamine administration, four day treatment, 1-5 mg/kg three times a day
  reward thresholds: significantly elevated thresholds

## COC(=O)[C@H]1[C@@H](OC(=O)c2ccccc2)C[C@@H]2CC[C@H]1N2C.Cl [cocaine, Cocaine hydrochloride]
Wistar rats; cocaine 10 mg/kg
  ICSS response Latencies: significantly decreased ICSS response latencies
Wistar rats; cocaine 10 mg/kg i.p.
  ICSS Thresholds: significantly lowered ICSS thresholds
Wistar rats; cocaine 10 mg/kg, at 10 and 40 min after cocaine injection
  ICSS thresholds, time course: significantly lowered in cocaine-treated rats, pretreated with vehicle
